{"source": "paper PMC9814779", "about": "“A triple farnesoid X receptor and peroxisome proliferator-activated receptor α/δ activator reverses hepatic fibrosis in diet-induced NASH in mice” (Communications Chemistry, 2020)", "key": {"[1]": {"target": "T1, human PPARγ ligand-binding domain (Gal4 chimera) (Homo sapiens, UniProt P37231)", "T1 construct": "coding for the hinge region and LBD of the canonical isoform of the respective nuclear receptor; expressed in transfected cells; host or cells: HEK293T", "T1 sequence (P37231 238-503 limits assumed)": "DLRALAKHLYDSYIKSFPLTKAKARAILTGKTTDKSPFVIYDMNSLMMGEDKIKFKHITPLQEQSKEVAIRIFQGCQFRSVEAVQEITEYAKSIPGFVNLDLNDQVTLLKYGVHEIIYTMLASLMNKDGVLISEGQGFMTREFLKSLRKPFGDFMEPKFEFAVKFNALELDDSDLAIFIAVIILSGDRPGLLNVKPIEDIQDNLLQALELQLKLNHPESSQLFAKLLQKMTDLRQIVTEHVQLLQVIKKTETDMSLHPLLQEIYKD", "assay": "Gal4 hybrid reporter gene assay, PPARγ", "format": "cell-based", "parameters": "Emax: dose or concentration left out as unconfirmed"}, "[2]": {"tested_on": "FXR- and PPAR-regulated genes in mouse liver", "assay": "Pilot animal experiment: hepatic FXR- and PPAR-regulated mRNA expression", "format": "in vivo, mice", "conditions": "single oral dose 10 mg/kg", "method": "Nine male RjOrl:Swiss (CD-1) mice (38–41 g body weight, purchased from Janvier Labs, France) were used for the pilot in vivo study. […] Food and water were available ad libitum. The in-life phase was performed by the contract research organization Pharmacelsus (Saarbrücken, Germany). All experimental procedures were approved by and conducted in accordance with the regulations of the local Animal Welfare authorities (Landesamt für Gesundheit und Verbraucherschutz, Abteilung Lebensmittel- und Veterinärwesen, Saarbrücken). Six animals received a single oral dose of 10 mg/kg body weight of 41, and three animals received the vehicle. Water containing 1% hydroxypropyl methylcellulose (HPMC)/Tween 80 (99:1) served as vehicle.\nTwelve or 18 hours after test compound application, mice were anesthetized under isoflurane and then sacrificed by cervical dislocation for tissue collection. Complete livers were obtained, immediately snap-frozen, and stored at −80 °C until further evaluation.\nLiver tissue samples from mice were used to study the mRNA expression of FXR- and PPAR-regulated genes. To homogenize the tissue samples for qRT-PCR analysis, one-third of each liver was placed on a Falcon Cell Strainer with 40-μm pore size (BD Bioscience, Erembodegem, Belgium) in a 50-mL Falcon tube. Every tissue was rinsed with PBS buffer containing 10% FCS, penicillin (100 U/mL), and streptomycin (100 μg/mL) and pressed through the cell strainer until 5 mL cell suspension had been collected. The samples were centrifuged at 1200 rpm for 10 min at 4 °C. […] Two micrograms per sample of the extracted RNA were reverse-transcribed into cDNA using the High-Capacity cDNA Reverse Transcription Kit (4368814, Thermo Fischer Scientific, Inc.) according to the manufacturer’s protocol. mRNA expression was studied by quantitative real-time PCR analysis with a StepOnePlus System (Applied Biosystems) based on the 2^−ΔCT method (Supplementary Fig. 6) or the 2^−ΔΔCT method (Fig. 6) using Power SYBR Green PCR Master Mix (Life Technologies). […]"}, "[3]": {"target": "T2, human FXR:retinoid X receptor (RXR) heterodimer (Homo sapiens, UniProt Q96RI1)", "T2 construct": "pcDNA3-hFXR[32] and pSG5-hRXR[33] served for receptor overexpression in the full-length FXR assay; expressed in transfected cells; host or cells: HeLa", "T2 sequence (P19793 whole entry)": "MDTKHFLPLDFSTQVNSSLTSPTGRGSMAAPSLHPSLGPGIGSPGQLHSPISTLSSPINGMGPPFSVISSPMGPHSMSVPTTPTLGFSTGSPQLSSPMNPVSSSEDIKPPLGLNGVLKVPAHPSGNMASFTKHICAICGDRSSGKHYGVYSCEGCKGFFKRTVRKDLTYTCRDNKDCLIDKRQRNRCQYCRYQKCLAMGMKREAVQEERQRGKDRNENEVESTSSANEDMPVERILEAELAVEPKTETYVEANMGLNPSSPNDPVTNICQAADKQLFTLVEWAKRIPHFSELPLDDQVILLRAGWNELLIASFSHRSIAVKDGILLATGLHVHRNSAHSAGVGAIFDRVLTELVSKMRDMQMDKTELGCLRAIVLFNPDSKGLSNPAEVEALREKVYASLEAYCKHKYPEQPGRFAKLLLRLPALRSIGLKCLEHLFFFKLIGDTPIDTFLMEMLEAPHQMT", "T2 sequence (Q96RI1 whole entry)": "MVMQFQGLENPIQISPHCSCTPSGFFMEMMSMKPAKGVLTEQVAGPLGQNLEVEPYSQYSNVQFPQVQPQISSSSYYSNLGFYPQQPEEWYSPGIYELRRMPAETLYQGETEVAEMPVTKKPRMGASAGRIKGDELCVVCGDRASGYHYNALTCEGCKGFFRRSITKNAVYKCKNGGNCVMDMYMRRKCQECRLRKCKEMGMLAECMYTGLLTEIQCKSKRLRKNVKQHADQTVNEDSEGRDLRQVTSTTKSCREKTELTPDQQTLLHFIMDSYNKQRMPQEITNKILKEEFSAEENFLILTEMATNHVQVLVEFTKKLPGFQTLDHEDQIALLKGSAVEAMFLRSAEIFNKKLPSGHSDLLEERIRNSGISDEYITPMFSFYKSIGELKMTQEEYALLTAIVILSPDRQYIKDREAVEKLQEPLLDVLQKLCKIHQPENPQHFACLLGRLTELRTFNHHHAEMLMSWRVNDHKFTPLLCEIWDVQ", "assay": "Full-length FXR reporter gene assay (BSEP response element) in HeLa cells", "format": "cell-based", "parameters": "Emax: dose or concentration left out as unconfirmed"}}, "data": [{"smiles": "CC(C)(C)c1ccc(C(=O)Nc2cccc(CCC(=O)O)c2)c(NC(=O)c2ccc(-c3ccco3)cc2)c1", "note": "[compound 41, 3-(3-[4-{tert-Butyl}-2-{4-(2-furyl)}benzamido]phenyl)propanoic acid]", "values": [{"measurement": "EC50", "setting": "[1]", "value": "2400 ± 100", "unit": "nM"}, {"measurement": "Emax", "setting": "[1]; read-out: max. rel. act. PPARγ", "value": 16, "unit": "%"}, {"measurement": "adverse effects, behaviour", "setting": "[2]", "value": "no adverse effects"}, {"measurement": "hepatic expression of BSEP, SHP, LPL, PCK and CRAT, 12 h", "setting": "[2]; 12 h after treatment, vs. vehicle", "value": "increased"}, {"measurement": "effect on FXR- and PPAR-regulated gene expression in livers, 18 h", "setting": "[2]; after 18 h", "value": "significantly reduced"}, {"measurement": "Emax", "setting": "[3]; HeLa, read-out: max. rel. act. FXR", "value": 19, "unit": "%"}, {"measurement": "EC50", "setting": "[3]; HeLa, mean ± SEM, n = 3, read-out: EC50 [μM] FXR", "value": "0.015 ± 0.002", "unit": "µM"}, {"measurement": "FXR activation efficacy compared to OCA", "setting": "[3]; reporter gene assay and mRNA expression levels", "value": "approximately 1/5"}]}]}
